Results: paper PMC10054240, “New Inhibitors of Respiratory Syncytial Virus (RSV) Replication Based on Monoterpene-Substituted Arylcoumarins” (Molecules, 2023)
Where “and” joins values, the source holds several entries; their conditions need not be identical. Equal entries are not always repeated. Where two headings read alike, the source gives them in different places.

Assays:
[1] = system: RSV A strain A2; assay: Antiviral activity against RSV A strain A2 in HEp-2 cells (ELISA virus titer); format: cell-based, respiratory syncytial virus; settings: for IC50: HEp-2, RSV A, read-out: pIC50 (-lg[IC50]) (converted); for IC50 / pIC50 (-lg[IC50]): from Table 1 values; for pIC50 (-lg[IC50]): RSV A
[2] = Cytotoxicity on non-infected HEp-2 cells, MTT assay; format: cell-based; settings: human, non-infected HEp-2 cells, CC50 (50% cytotoxic concentration), MTT, 24 h
[3] = system: HEp-2 cells; assay: as above; format: cell-based; settings: for CC50: read-out: CC50 (50% cytotoxic concentration), MTT, 24 h
[4] = human respiratory syncytial virus
[5] = human respiratory syncytial virus, HEp-2, read-out: EC50 (50% effective concentration)
[6] = read-out: EC50 (50% effective concentration)
[7] = human respiratory syncytial virus, read-out: EC50 (50% effective concentration), RSV A strain A2, HEp-2 cells

Row | Structure (SMILES) | antiviral activity against RSV A (in words) [1] | IC50 [1, 4] [µM] | EC50 [1, 5] [µM] | CC50 at 24 h [2] [µM] | SI (selective index) [1] | pIC50 (-lg[IC50]) [1] | EC50 [1, 6] [µM] | CC50 [3] [µM] | EC50 ([1]; human respiratory syncytial virus, HEp-2, read-out: EC50 (50% effective concentration), RSV A strain A2, HEp-2 cells) [µM] | EC50 [1, 7] [µM] | cytotoxicity (in words) [3]
1 | CC(C)=CCC/C(C)=C/COc1ccc2c(-c3ccccc3)cc(=O)oc2c1 [Compound 14a] | moderate antiviral activity | 67.6 | 67.3 ± 9.1 | 805 ± 97.6 | – | – | – | – | – | – | –
2 | CC1(C)C2CC=C(COc3ccc4c(-c5ccccc5)cc(=O)oc4c3)C1C2 (centres unmarked) [Compound 14c] | not active | – | – | – | 3.5 | 3.63 | 234 ± 27.1 | 813 ± 32.4 | – | – | –
3 | CC1(C)C2CC=C(CCOc3ccc4c(-c5ccccc5)cc(=O)oc4c3)C1C2 (centres unmarked) [Compound 14d] | – | 83.2 | 82.5 ± 10.3 | 657 ± 20.4 | 7.9 | – | – | – | – | – | –
4 | CC1(C)[C@H]2CC=C(CCCCOc3ccc4c(-c5ccccc5)cc(=O)oc4c3)[C@@H]1C2 [Compound 14f, 7-(4-((1R,5S)-6,6-Dimethylbicyclo[3.1.1]hept-2-en-2-yl)butoxy)-4-phenyl-2H-chromen-2-one] | – | 112 | 111 ± 10.5 | 1270 ± 180 | 11.4 | – | – | – | – | – | –
5 | CC(C)=CCC/C(C)=C/COc1ccc2c(-c3ccc(Br)cc3)cc(=O)oc2c1 [Compound 15a] | – | 8.91 | 8.8 ± 0.7 | 8.8 ± 0.5 | 1 | – | – | – | – | – | –
6 | CC1(C)C2CC=C(COc3ccc4c(-c5ccc(Br)cc5)cc(=O)oc4c3)C1C2 (centres unmarked) [Compound 15b] | – | – | – | 46.6 ± 8.6 | 3 | 4.82 | 15.1 ± 1.1 | – | – | – | –
7 | CC1(C)C2CC=C(COc3ccc4c(-c5ccc(Br)cc5)cc(=O)oc4c3)C1C2 (centres unmarked) [Compound 15c] | – | – | – | – | 1.9 | 4.31 and 4.30 | 48.7 ± 7.6 | 90.8 ± 11 | – | – | –
8 | CC1(C)C2CC=C(CCOc3ccc4c(-c5ccc(Br)cc5)cc(=O)oc4c3)C1C2 (centres unmarked) [Compound 15d] | – | > 20 | > 20 | 17.2 ± 2.6 | <0.8 | 4.70 | – | – | – | – | –
9 | CC1(C)[C@H]2CC=C(CCCOc3ccc4c(-c5ccc(Br)cc5)cc(=O)oc4c3)[C@@H]1C2 [Compound 15e, 4-(4-Bromophenyl)-7-(3-((1R,5S)-6,6-dimethylbicyclo[3.1.1]hept-2-en-2-yl)propoxy)-2H-chromen-2-one] | – | > 12.6 | > 12.5 | 12.5 ± 1.4 | <1 | 4.90 | – | – | – | – | –
10 | CC1(C)[C@H]2CC=C(CCCCOc3ccc4c(-c5ccc(Br)cc5)cc(=O)oc4c3)[C@@H]1C2 [Compound 15f, 4-(4-Bromophenyl)-7-(4-((1R,5S)-6,6-dimethylbicyclo[3.1.1]hept-2-en-2-yl)butoxy)-2H-chromen-2-one] | – | 9.55 | 9.5 ± 0.8 | 91.3 ± 9.2 | – | – | – | – | – | – | –
11 | O=c1cc(-c2ccc(Br)cc2)c2ccc(OCc3ccccc3)cc2o1 [Compound 15g] | – | 83.2 | 84 ± 3 | 265 ± 29.5 | 3.2 | – | – | – | – | – | –
12 | CC(C)=CCC/C(C)=C/COc1ccc2c(-c3ccc(F)cc3)cc(=O)oc2c1 [Compound 16a] | – | 47.9 | 47.4 ± 8 | 273 ± 16 | 5.8 | – | – | – | – | – | –
13 | CC1(C)C2CC=C(COc3ccc4c(-c5ccc(F)cc5)cc(=O)oc4c3)C1C2 (centres unmarked) [Compound 16b] | – | – | – | – | 2.9 | 3.99 | 103 ± 7.1 | 297 ± 8.5 | – | – | –
14 | CC1(C)C2CC=C(COc3ccc4c(-c5ccc(F)cc5)cc(=O)oc4c3)C1C2 (centres unmarked) [Compound 16c] | – | – | – | – | 1.4 | 4.84 | 14.3 ± 2.9 | 20.5 ± 4.9 | – | – | –
15 | CC1(C)[C@H]2CC=C(CCCOc3ccc4c(-c5ccc(F)cc5)cc(=O)oc4c3)[C@@H]1C2 [Compound 16e, 7-(3-((1R,5S)-6,6-Dimethylbicyclo[3.1.1]hept-2-en-2-yl)propoxy)-4-(4-fluorophenyl)-2H-chromen-2-one] | – | 110 | 110 ± 10.4 | 996 ± 8.2 | 9 | – | – | – | – | – | –
16 | CC1(C)[C@H]2CC=C(CCCCOc3ccc4c(-c5ccc(F)cc5)cc(=O)oc4c3)[C@@H]1C2 [Compound 16f, 7-(4-((1R,5S)-6,6-Dimethylbicyclo[3.1.1]hept-2-en-2-yl)butoxy)-4-(4-fluorophenyl)-2H-chromen-2-one] | – | 9.33 | 9 | 109 ± 10.5 | 11.8 | – | 9.2 ± 1.1 | – | – | – | –
17 | O=c1cc(-c2ccc(F)cc2)c2ccc(OCc3ccccc3)cc2o1 [Compound 16g, 7-(Benzyloxy)-4-(4-fluorophenyl)-2H-chromen-2-one] | – | 692 | – | 655 ± 29.7 | <0.9 | 3.20 | – | – | > 690 | – | –
18 | COc1ccc(-c2cc(=O)oc3cc(OC/C=C(\C)CCC=C(C)C)ccc23)cc1 [Compound 17a] | – | 58.9 | 58.3 ± 8.5 | 339 ± 26.3 | 5.8 | 4.20 | – | – | – | – | –
19 | COc1ccc(-c2cc(=O)oc3cc(OCC4=CCC5CC4C5(C)C)ccc23)cc1 (centres unmarked) [Compound 17b] | – | > 12.6 | > 12 | 12.4 ± 2.8 | <1 | 4.90 | – | – | – | – | –
20 | COc1ccc(-c2cc(=O)oc3cc(OCC4=CCC5CC4C5(C)C)ccc23)cc1 (centres unmarked) [Compound 17c] | – | – | – | – | <1 | < 4.8 and 4.80 | > 15 | 14.7 ± 2.9 | – | – | –
21 | COc1ccc(-c2cc(=O)oc3cc(OCCC4=CCC5CC4C5(C)C)ccc23)cc1 (centres unmarked) [Compound 17d] | – | 64.6 | 64.1 ± 5.4 | 677 ± 22.9 | 10.6 | – | – | – | – | – | –
22 | COc1ccc(-c2cc(=O)oc3cc(OCCCC4=CC[C@H]5C[C@@H]4C5(C)C)ccc23)cc1 [Compound 17e, 7-(3-((1R,5S)-6,6-Dimethylbicyclo[3.1.1]hept-2-en-2-yl)propoxy)-4-(4-methoxyphenyl)-2H-chromen-2-one] | – | – | – | > 100 | – | – | – | – | – | 35.9 ± 5.7 | –
23 | COc1ccc(-c2cc(=O)oc3cc(OCCCCC4=CC[C@H]5C[C@@H]4C5(C)C)ccc23)cc1 [Compound 17f, 7-(4-((1R,5S)-6,6-Dimethylbicyclo[3.1.1]hept-2-en-2-yl)butoxy)-4-(4-methoxyphenyl)-2H-chromen-2-one] | – | > 12.6 | 10 | 117 ± 7 | – | 4.97 | 10.8 ± 1 | – | – | – | –
24 | COc1ccc(-c2cc(=O)oc3cc(OCc4ccccc4)ccc23)cc1 [Compound 17g] | – | > 17 | > 17 | 16.8 ± 3.2 | <1 | 4.80 | – | – | – | – | –
25 | CC1(C)[C@H]2CC=C(CNc3ccc4c(-c5ccccc5)cc(=O)oc4c3)[C@@H]1C2 [Compound 21, 7-(((1R,5S)-6,6-Dimethylbicyclo[3.1.1]hept-2-en-2-yl)methylamino)-4-phenyl-2H-chromen-2-one] | – | > 12.6 | > 13 | 20.5 ± 1.4 | – | 4.90 | – | – | – | – | abrupt increase in cytotoxicity
26 | CC1(C)[C@H]2CC=C(CCNc3ccc4c(-c5ccccc5)cc(=O)oc4c3)[C@@H]1C2 [Compound 22, 7-(2-((1R,5S)-6,6-Dimethylbicyclo[3.1.1]hept-2-en-2-yl)ethylamino)-4-phenyl-2H-chromen-2-one] | – | 79.4 | 79.9 ± 7.4 | 480 ± 18.4 | 6 | – | – | – | – | – | –
27 | NC(=O)c1ncn([C@@H]2O[C@H](CO)[C@@H](O)[C@H]2O)n1 [Ribavirin, reference compound] | – | – | – | > 4000 | – | – | – | – | – | 80.1 ± 13.5 | –
